{
  "source": "patent US5807880A",
  "about": "“Azole derivative and pharmaceutical composition thereof” (Yamanouchi Pharmaceutical Co., Ltd., priority 1993, dated 1998)",
  "key": {"rat steroid 17-20 lyase": {"biological_target": "T1, rat steroid 17-20 lyase (Rattus norvegicus, UniProt P11715)", "T1 construct": "A testis was excised from a ten-week-old male Wistar rat, homogenized and then centrifuged to obtain microsomes; from tissue; host or cells: testicular microsomes of ten-week-old male Wistar rats", "T1 sequence (P11715 1-507)": "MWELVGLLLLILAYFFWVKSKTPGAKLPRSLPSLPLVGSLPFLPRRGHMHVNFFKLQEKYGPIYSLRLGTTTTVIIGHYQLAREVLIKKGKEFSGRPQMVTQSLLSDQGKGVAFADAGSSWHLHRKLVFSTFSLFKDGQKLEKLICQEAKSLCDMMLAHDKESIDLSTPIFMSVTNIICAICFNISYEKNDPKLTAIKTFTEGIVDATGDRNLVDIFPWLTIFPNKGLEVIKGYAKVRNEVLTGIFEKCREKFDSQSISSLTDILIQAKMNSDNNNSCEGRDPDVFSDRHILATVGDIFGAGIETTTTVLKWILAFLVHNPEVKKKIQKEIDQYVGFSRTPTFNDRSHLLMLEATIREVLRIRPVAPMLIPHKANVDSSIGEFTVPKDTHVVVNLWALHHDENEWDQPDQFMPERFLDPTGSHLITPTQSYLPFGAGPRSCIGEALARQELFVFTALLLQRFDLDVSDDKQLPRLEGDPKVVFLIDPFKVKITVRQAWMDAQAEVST", "assay": "Measurement of rat steroid 17-20 lyase inhibiting activity (rat testicular microsomes)", "assay_type": "biochemical, rat (male Wistar)", "conditions": "1 μM [1,2-3H]-17α-hydroxyprogesterone, NADPH, pH 7.4, 37° C., 60 minutes, read-out: Concentration of drug to inhibit 50% of steroid 17-20 lyase activity (IC50)", "description": "(1) Measurement of rat steroid 17-20 lyase inhibiting activity\nCarried out in accordance with the procedure described in J. Steroid Biochem., Vol.33, No.6, 1191-1195 (1989).\nA testis was excised from a ten-week-old male Wistar rat, homogenized and then centrifuged to obtain microsomes. A 50 μg portion of the microsomal protein, 1 μM of [1,2-^3 H]-17α-hydroxyprogesterone (5.55×10^5 dpm) and a test compound were dissolved in 100 μl of 50 mM phosphate buffer (pH 7.4), and the solution was mixed with NADPH solution and incubated at 37° C. for 60 minutes. This was mixed with 400 μl of a mixed solvent of methanol and tetrahydrofuran (2:3) and subjected to centrifugation, and radioactivities of the substrate and products (androstenedione and testosterone) in the resulting supernatant fluid were measured using a high performance liquid chromatography (HPLC) equipped with a radioactive isotope detector to examine activity of the test compound to inhibit steroid 17-20 lyase.\nThe steroid 17-20 lyase inhibiting activity in rat testicular microsomes was calculated as IC50 value by the method described in the above test method (1), with the results shown in Table 1."}, "testosterone synthesis": {"test_system": "testosterone synthesis", "assay": "Measurement of in vivo rat testosterone synthesis inhibiting activity (LH-RH stimulated)", "conditions": "1 mg/kg, oral, fasted male Wistar rats; LH-RH 60 ng/rat i.m. 1 h after drug, blood 1 h thereafter; serum testosterone", "description": "(2) Measurement of in vivo rat testosterone synthesis inhibiting activity\nCarried out in accordance with the procedure described in J. Steroid Biochem., Vol.32, No.6, 781-788 (1989).\nEach test drug was orally administered to ten-week-old male Wistar rats under fasting. One hour after the drug administration, LH-RH (60 ng/rat) was administered by intramuscular injection to accelerate testosterone synthesis. One hour thereafter, blood was collected by decapitation, and concentration of testosterone in the thus obtained serum was measured by a radioactive isotope assay to calculate testosterone synthesis inhibiting activity.\nThe in vivo activity to inhibit synthesis of testosterone in rats measured by the above test method (2) was expressed as a testosterone synthesis inhibition ratio (%) to the control group when each test compound or a control compound was administered in a dose of 1 or 10 mg/kg (Table 2)."}},
  "note": "Where a name gives a salt, the structure may show the parent alone.",
  "data": [
    {"smiles": "CC(c1ccc2c(c1)Nc1ccccc1S2)n1ccnc1", "note": "(stereo not shown) [Example 10, 2-[1-(1H-Imidazo1-1-yl)ethyl]phenothiazine monooxalate]", "values": [
      {"measurement": "IC50", "setting": "rat steroid 17-20 lyase", "result": 6.9, "unit": "nM"}
    ]},
    {"smiles": "c1ccc2c(c1)Cc1cc(Cn3ccnc3)ccc1-2", "note": "[Example 7, 1-[(9H-Fluoren-2-yl)methyl]-1H-imidazole]", "values": [
      {"measurement": "Testosterone synthesis inhibition ratio (to the control group)", "setting": "testosterone synthesis", "result": 78.4, "unit": "%"}
    ]},
    {"smiles": "CC(c1ccc2c(c1)sc1ccccc12)n1ccnc1", "note": "(stereo not shown) [Example 8, 1-[1-(Dibenzothiophen-3-yl)ethyl]-1H-imidazole]", "values": [
      {"measurement": "IC50", "setting": "rat steroid 17-20 lyase", "result": 5.7, "unit": "nM"},
      {"measurement": "Testosterone synthesis inhibition ratio (to the control group)", "setting": "testosterone synthesis", "result": 73.0, "unit": "%"}
    ]},
    {"smiles": "CC(C)(c1ccc2c(c1)Cc1ccccc1-2)n1ccnc1", "note": "[Example 4, 1-[1-(9H-fluoren-2-yl)-1-methylethyl]-1H-imidazole]", "values": [
      {"measurement": "IC50", "setting": "rat steroid 17-20 lyase", "result": 5, "unit": "nM"}
    ]},
    {"smiles": "CC(c1ccc2c(c1)Cc1ccccc1-2)n1ccnc1", "note": "(stereo not shown) [Example 2, 1-[1-(9H-fluoren-2-yl)ethyl]-1H-imidazole hydrochloride]", "values": [
      {"measurement": "IC50", "setting": "rat steroid 17-20 lyase", "result": 4, "unit": "nM"},
      {"measurement": "Testosterone synthesis inhibition ratio (to the control group)", "setting": "testosterone synthesis", "result": 86.3, "unit": "%"}
    ]}
  ]
}
